Source: ChEMBL document CHEMBL1201862, “PubChem BioAssay data set” (2004)
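Protocol summary: plate cells (96-well), add compound at 5 concentrations, incubate 48 h, interpolate endpoints linearly. GI50: concentration for 50% inhibition of growth.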 Calls of active or inactive are those of the source. Cut-off read from the data, not from the text of the source: active = GI50 up to about 1.1 µM and inactive = higher.

Legend:
Test in all cases: inhibition of tumour cell growth, NCI panel, 48 h
SF-295 = tested on: SF-295
SNB-75 = tested on: SNB-75
K562 = tested on: K562
NCI-H226 = tested on: NCI-H226
OVCAR-4 = tested on: OVCAR-4
HCC 2998 = tested on: HCC 2998
OVCAR-8 = tested on: OVCAR-8
TK-10 = tested on: TK-10
MDA-MB-435 = tested on: MDA-MB-435
LOX IMVI = tested on: LOX IMVI
RXF 393 = tested on: RXF 393
SNB-19 = tested on: SNB-19
HT-29 = tested on: HT-29
HL-60 = tested on: HL-60
HCT-116 = tested on: HCT-116
NCI-H522 = tested on: NCI-H522
SW-620 = tested on: SW-620
OVCAR-5 = tested on: OVCAR-5
SN12C = tested on: SN12C
786-0 = tested on: 786-0
CCRF-CEM = tested on: CCRF-CEM
NCI/ADR-RES = tested on: NCI/ADR-RES
EKVX = tested on: EKVX
OVCAR-3 = tested on: OVCAR-3
UACC-257 = tested on: UACC-257
KM12 = tested on: KM12
SR = tested on: SR
HOP-62 = tested on: HOP-62
NCI-H23 = tested on: NCI-H23
MCF7 = tested on: MCF7
Hs-578T = tested on: Hs-578T
A549 = tested on: A549
MDA-N = tested on: MDA-N
DU-145 = tested on: DU-145
SF-268 = tested on: SF-268
ACHN = tested on: ACHN
SK-MEL-5 = tested on: SK-MEL-5
UO-31 = tested on: UO-31
PC-3 = tested on: PC-3
MOLT-4 = tested on: MOLT-4
HCT-15 = tested on: HCT-15
SF-539 = tested on: SF-539
BT-549 = tested on: BT-549
RPMI-8226 = tested on: RPMI-8226
NCI-H460 = tested on: NCI-H460
Malme-3M = tested on: Malme-3M
SK-MEL-28 = tested on: SK-MEL-28
HOP-92 = tested on: HOP-92
MDA-MB-231 = tested on: MDA-MB-231
IGROV-1 = tested on: IGROV-1
A498 = tested on: A498
U-251 = tested on: U-251
COLO 205 = tested on: COLO 205

## CN(C)Cc1cc(/N=N/c2ccc(Cl)cc2)ccc1OC(=O)c1ccccc1
SF-295
  GI50: 14.8 µM (inactive)
SNB-75
  GI50: 17 µM (inactive)
K562
  GI50: 14.4 µM (inactive)
NCI-H226
  GI50: 21.9 µM (inactive)
OVCAR-4
  GI50: 14.1 µM (inactive)
HCC 2998
  GI50: 15.3 µM (inactive)
OVCAR-8
  GI50: 17 µM (inactive)
TK-10
  GI50: 15.3 µM (inactive)
MDA-MB-435
  GI50: 15.7 µM (inactive)
LOX IMVI
  GI50: 12.4 µM (inactive)
RXF 393
  GI50: 14.5 µM (inactive)
SNB-19
  GI50: 15 µM (inactive)
HT-29
  GI50: 14.4 µM (inactive)
HL-60
  GI50: 13.5 µM (inactive)
HCT-116
  GI50: 16.4 µM (inactive)
NCI-H522
  GI50: 12.2 µM (inactive)
SW-620
  GI50: 16.9 µM (inactive)
OVCAR-5
  GI50: 16.8 µM (inactive)
SN12C
  GI50: 14.6 µM (inactive)
786-0
  GI50: 14.7 µM (inactive)
CCRF-CEM
  GI50: 15.3 µM (inactive)
NCI/ADR-RES
  GI50: 17.7 µM (inactive)
EKVX
  GI50: 12.1 µM (inactive)
OVCAR-3
  GI50: 15.7 µM (inactive)
UACC-257
  GI50: 19.2 µM (inactive)
KM12
  GI50: 15.7 µM (inactive)
SR
  GI50: 12 µM (inactive)
HOP-62
  GI50: 12.6 µM (inactive)
NCI-H23
  GI50: 17.8 µM (inactive)
MCF7
  GI50: 13.2 µM (inactive)
Hs-578T
  GI50: 16.4 µM (inactive)
A549
  GI50: 3.26 µM (inactive)
MDA-N
  GI50: 16.5 µM (inactive)
DU-145
  GI50: 17 µM (inactive)
SF-268
  GI50: 19.2 µM (inactive)
ACHN
  GI50: 14.5 µM (inactive)
SK-MEL-5
  GI50: 14.9 µM (inactive)
UO-31
  GI50: 12.6 µM (inactive)
PC-3
  GI50: 15.6 µM (inactive)
MOLT-4
  GI50: 8.85 µM (inactive)
HCT-15
  GI50: 12.9 µM
SF-539
  GI50: 18.2 µM (inactive)
BT-549
  GI50: 22.1 µM (inactive)
RPMI-8226
  GI50: 15.6 µM (inactive)
NCI-H460
  GI50: 15.3 µM (inactive)
Malme-3M
  GI50: 16.7 µM (inactive)
SK-MEL-28
  GI50: 16.1 µM (inactive)
HOP-92
  GI50: 2.9 µM (inactive)
MDA-MB-231
  GI50: 14.1 µM (inactive)
IGROV-1
  GI50: 13.2 µM (inactive)
A498
  GI50: 15.5 µM (inactive)
U-251
  GI50: 15 µM (inactive)
COLO 205
  GI50: 18.4 µM (inactive)
